Results published in patent US20220332758A1, “PEPTIDE-BASED COMPOSITIONS AND METHODS FOR TREATING ALZHEIMER'S DISEASE” (Board of Regents, The Universityof Texas System, priority 2019, published 2022).

Tests used:
[1] = molecular target: T1, 20S proteasome (Homo sapiens, UniProt P25787+P60900); test: AFM imaging of gate conformers of 20S proteasomes; design: purified from erythrocytes; purchased Boston Biochem, Inc. or Enzo Life Sciences, Inc; host or cells: human erythrocytes; settings: 1 μM
Procedure: Atomic Force Microscopy (AFM) Imaging. Single molecules of 20S proteasomes were imaged in tapping (oscillating) mode in liquid, with a scanner E of the Multimode Nanoscope IIIa (Bruker Inc., Santa Barbara, Calif.). The proteasomes were electrostatically attached to a muscovite mica substrate, covered with imaging buffer (5 mM Tris/HCl, pH 7) and scanned using cantilevers with the spring constant of 0.35 N/m from the SNL (Sharp Nitride Lever) probes (Bruker Inc., Santa Barbara, Calif.) tuned to 9-10 kHz. The amplitude set-point in the range of 1.5-2.0V, drive voltage of 300-500 mV and 3.05 Hz scanning rate were used. Scans of 1 μm^2 fields (512×512 pixels) were collected in height-mode. The images of fields typically contained several dozens of top-view (“standing”) 20S proteasome particles. The gate status was deduced from a profile of raw height values of pixels measured by a probe scanning across the single proteasome particles. In short, under the employed scanning conditions the proteasome a face with the central gate area was completely rendered by a six-pixel (11-12 nm) scan-line fragment. Numerical values of the height of particles of raw (after standard flattening) images were collected with a practical vertical resolution reaching 1 Å. […] The “events” of gate opening/closing were analysed for scans of distinct particles as well as multiple scans of the same particles.

[2] = molecular target: T2, proteasome activity in CNS of non-transgenic mice (Mus musculus, UniProt P49722+Q9QUM9); test: Proteasome activity in CNS of mice after IP injection; assay type: in vivo
T2 construct: from tissue; host or cells: CNS of non-transgenic mice
Procedure: Plate-based proteasome activity assay. Samples were homogenized by pestle in 100 μL chilled proteasome buffer (50 mM Tris, 5 mM MgCl2, 1 mM DTT, pH 7.4, vortexed and then centrifuged at 21,000 g at 4° C. for 15 minutes and supernatant transferred. Protein content was recorded by Bradford assay and samples diluted as appropriate. In a black 96-well plate, 10 μL of samples were added to 80 μL proteasome buffer supplemented with addition of 5 mM ATP for measuring 26S proteasome activity. Finally, 50 μM Suc-LLVY-AMC fluorogenic substrate in 10 μL proteasome buffer was added to each well to measure chymotrypsin-like activity. The plate was incubated at 37° C. in a SpectrumMax M2 plate reader for four hours with fluorescence measured every 10 minutes with 355 nm excitation and reading 460 nm emission. Total proteasome activity per sample was defined as the gradient of the linear trendline over this incubation period.

[3] = system: APP, BACE1 and Aβ42 levels; test: Immunoblot of APP and BACE1 and Aβ42 Elisa in hAPP(J20) mice; assay type: in vivo, mouse; settings: 14 days treatment
[4] = molecular target: T1, 20S proteasome; settings: cited from earlier work
[5] = molecular target: T3, purified human 20S proteasome (Homo sapiens, UniProt P25787+P60900); test: In-gel overlay activity on non-denaturing gel, 20S proteasome; assay type: biochemical; settings: 1 microM, 15 min, 100 microM Suc-LLVY-MCA
T3 construct: purified from erythrocytes; purchased Boston Biochem, Inc. or Enzo Life Sciences, Inc; host or cells: human erythrocytes
Procedure: (§1) Purified human 20S and 26S proteasomes were separated on non-denaturing polyacrylamide gel. The gel was overlayed with reaction buffer containing 100 microM fluorogenic peptide substrate Suc-LLVY-MCA (SEQ ID NO: 14) and 1% of vehicle solvent (DMSO) or the substrate and 1 microM Tat1 8,9 TOD. The gel was photographed after 15 min of incubation and then stained for the total protein content with Coomassie Brilliant Blue, and photographed. […] The protein content was the same for the control and Tat-overlayed sets. The activities of both 26S and 20S are enhanced by Tat1 8,9 TOD. The enhanced activity of 26S was not the result of Tat1 8,9 TOD—induced breaking of the 26S assembly into its components (19S and 20S) and activation of the released 20S catalytic core that still remains in the gel together with the whole 26S assembly. […] Traces of the 20S in both control 26S preparation and preparation pre-incubated with Tat1 8,9 TOD.

[6] = molecular target: T4, purified human 26S proteasome (Homo sapiens, UniProt P25787+P60900); test: In-gel overlay activity on non-denaturing gel, 26S proteasome; assay type: biochemical; settings: 1 microM, 15 min, 100 microM Suc-LLVY-MCA
T4 construct: purchased Boston Biochemicals (Boston Biochem)
Procedure: as §1

In the case of `N=C(N)NCCCC(NC(=O)CN)C(=O)NC(CCCCN)C(=O)NC(CCCCN)C(=O)NC(CCCNC(=N)N)C(=O)NC(CCCNC(=N)N)C(=O)NC(CCC(N)=O)C(=O)N1Cc2ccccc2C[C@H]1C(=O)N1C(C(=O)NC(CCCNC(N)N)C(=O)N2CCCC2C(=O)NC(CO)C(=O)O)CC2CCCCC21` (stereo partly drawn) [(5), GRKKRRQ-TOD-RPS], the intermediate conformers [1] is reported as 27%, the “proteasome activity in the central nervous system” value ([2]; 24 hours after intraperitoneal injection) is reported as “significantly enhances proteasome activity” and the blood-brain-barrier penetration ([2]; mice, IP injection) is reported as “stably penetrates the blood-brain-barrier”. For the same molecule, the APP protein levels [3] was “decline in both APP and BACE1 protein levels”, the “protein levels of BACE1” value [3] was “significantly reduces” and the “protein levels of β-amyloid” value [3] was “significantly reduces”. The “degradation by 20S proteasome” value [4] was “resistant to degradation”, the “20S activity in gel overlay” value [5] was “enhanced” and the “26S activity in gel overlay” value [6] was “enhanced”.
